In ChEMBL document CHEMBL4706757, “Novel Substituted Pyridazines as Splicing Modulators for Modulating Splicing of mRNA and Uses Thereof for Treating Diseases” (ACS Med Chem Lett, 2021):

Tests used:
Assay type in all cases: cell-based
[1] = Modulation of HTT mRNA exon 49-50 splicing in human GM04724 cells incubated for 24 hrs by TaqMan qPCR analysis; details: GM04724, 24 h
[2] = Modulation of HTT mRNA exon 49b splicing in human GM04724 cells incubated for 24 hrs by TaqMan qPCR analysis; details: GM04724, 24 h
[3] = Modulation of HTT mRNA splicing in human GM04724 cells assessed as mHTT protein level incubated for 48 hrs by 2B7-MW1 assay; details: GM04724, 48 h

Measured: EC50

C[C@@]12CCC[C@@](C)(N1)[C@H](F)[C@H](Oc1ccc(-c3ccc(-c4cn[nH]c4)cc3O)nn1)C2
≤ 0.01 nM: all assays above

Cn1cc(-c2cc(O)c(-c3ccc(O[C@@H]4C[C@@H]5CCC[C@@H](N5)[C@@H]4F)nn3)cc2F)cn1
≤ 0.01 nM: all assays above

Oc1cc(-c2cn[nH]c2)c(F)cc1-c1ccc(O[C@@H]2C[C@@H]3CCC[C@@H](N3)[C@@H]2F)nn1
≤ 0.01 nM: all assays above

Oc1cc(-c2cn[nH]c2)c(F)cc1-c1ccc(O[C@H]2C[C@H]3CCC[C@H](N3)[C@H]2F)nn1
≤ 0.01 nM: all assays above

Oc1cc(-c2cn[nH]c2)ccc1-c1ccc(O[C@H]2C[C@H]3CCC[C@H](N3)[C@H]2F)nn1
≤ 0.01 nM: all assays above

Oc1cc(-c2cn[nH]c2)ccc1-c1ccc(O[C@@H]2C[C@@H]3CCC[C@@H](N3)[C@@H]2F)nn1
≤ 0.01 nM: all assays above

C[C@]12CCC[C@](C)(N1)[C@@H](F)[C@@H](Oc1ccc(-c3ccc(-c4cn[nH]c4)cc3O)nn1)C2
≤ 0.01 nM: all assays above

Cn1cc(-c2cc(O)c(-c3ccc(O[C@H]4C[C@H]5CCC[C@H](N5)[C@H]4F)nn3)cc2F)cn1
≤ 0.01 nM: all assays above
